Assay results reported in patent US20110244058A1, “Compositions and methods for treatment of pulmonary diseases and conditions” (priority 2008, published 2011).
In brackets after ≈: the same amount, converted by molar mass. Read-outs that look alike come from different tables or passages of the source.

Columns and labels:
[1] = test system: mice with LPS-induced sepsis; conditions: eight mice per group; intranasal drip pulmonary delivery at 0, 6, 23.5 hr; LPS 50 μg at 24 hour; control three out of eight died
Experimental: In all three groups, LPS-induced sepsis was caused by delivery of highly concentrated LPS (50 μg) at 24 hour. […] In the steroid-treated mice, an inhaled corticosteroid (ICS) was delivered for 5 minutes through intranasal drip pulmonary delivery at 0 hr, 6 hr, and 23.5 hr. In the control group, no drug was administered prior to inducing LPS sepsis.

[2] = test system: Brown Norway (BN) rats sensitized to ragweed pollen extract; conditions: aerosolized 0.05% brimonidine or 0.005% dexmedetomidine for 10 minutes before ragweed extract, FIG. 3
Experimental: The control group rats were pretreated with aerosolized saline and administered aerosolized saline. The saline group rats were pretreated with aerosolized saline, then exposed to aerosolized ragweed extract for 10 minutes.
At 10 minutes after completion of the allergen exposure, rats were anesthetized and exsanguinated, and their lungs were lavaged with 50 ml of buffer solution. The resulting bronchoalveolar lavage (BAL) fluid was centrifuged to remove the cells, and the supernatants were analyzed for albumin concentration using an ELISA assay for rat albumin.

[3] = Ionization as a function of pH; assay type: physicochemical
Excerpt: At a lower pH and a lower lipophilicity, bronchial mucosal membrane retention time is maximized and mucosal penetration is reduced. More of a drug is washed away and less is absorbed into lung parenchyma increasing the surface mucosal effect. The higher the lipophilicity, the greater is the selective α-2 agonist's penetration through the lipophilic mucosal cell membranes. This is because at a more alkaline pH, more of the compound is present in a non-ionized form.
When a selective α-2 agonist is lipophilic, it becomes highly ionized as it enters the distal esophagus and stomach. […] Thus, it is very poorly absorbed in lipophilic membranes of the gastrointestinal tract and therefore, results in less systemic absorption.

[4] = Excerpt: The terms “salt” and “constituent of a balanced salt solution” are used interchangeably for the purposes of the present invention. They are a subset of agents that improve solubility of the inventive formulations.
[5] = remark: listed apart in the source
Excerpt: The doses are estimates only, assuming less than 20% nebulized DTL (dose to lung).

Remark: listed apart in the source
[6] = test system: α-2 over α-1 adrenergic receptors; conditions: cited from earlier work
[7] = cited from earlier work

Question: Which results are given for Brc1c(NC2=NCCN2)ccc2nccnc12.O=C(O)C(O)C(O)C(=O)O [brimonidine, 5-bromo-6-(2-imidazolin-2-ylamino)quinoxaline D-tartrate]?
Answer: deaths because of LPS-induced sepsis [1]: no animals died; BAL albumin concentration after ragweed exposure [2]: no apparent protective effect

Question: For Cc1cccc([C@H](C)c2cnc[nH]2)c1C [dexmedetomidine], which ionized ([3]; in pharynx (pH is about 6.8)) is on record?
Answer: The ionized was “about 65%”.

Question: And the ionized ([3]; in stomach (pH of less than 5.0))?
Answer: Its ionized is ~100%.

Question: And the ionized ([3]; lungs and airways, pH about 7.4 to 7.8)?
Answer: Its ionized is 10-23%.

Question: And the ionized ([3]; pH of 6.7)?
Answer: The ionized was “about 65%”.

Question: What about the non-ionized ([3]; pH of 6.7) of the same molecule?
Answer: The non-ionized was “about 35%”.

Question: And the ionized ([3]; pH of 8.0 or greater)?
Answer: The ionized was “about 10%”.

Question: What about the non-ionized ([3]; pH of 8.0 or greater) of the same molecule?
Answer: Its non-ionized is “about 90%”.

Question: And the “max soluble concentration, BSS solution” value ([4]; pH 7)?
Answer: Its value is “≧0.10%”.

Question: What about the “soluble concentration with constituents of a balanced salt solution” value ([4]; pH 7.1) of the same molecule?
Answer: Its value is ≥ 0.1%.

Question: And the wheeze-auscultation score ([5]; nebulized 0.03% at pH 5.0, reduced from baseline 10, scale for mild asthma)?
Answer: Its wheeze-auscultation score is “about 5”.

Question: And the “lung effects (wheeze and airway resistance versus baseline)” value ([5]; nebulized 0.03% at pH 8.0, versus pH 5.0)?
Answer: Its value is “the lung effects are greater”.

Question: What about the max soluble concentration (pH 6) of the same molecule?
Answer: Its max soluble concentration is 0.195%.

Question: What about the max soluble concentration (pH 6.4) of the same molecule?
Answer: Its max soluble concentration is 0.060%.

Question: And the max soluble concentration (pH 7)?
Answer: The max soluble concentration was 0.023%.

Question: And the max soluble concentration (pH 7.4)?
Answer: Its max soluble concentration is 0.015%.

Question: What about the max soluble concentration (pH 8) of the same molecule?
Answer: The max soluble concentration was 0.013%.

Question: What about the “BAL albumin concentration after ragweed exposure” value [2] of the same molecule?
Answer: The value was “albumin levels similar to those of control rats”.

Question: What about the solubility (physchem; pH 6, aqueous buffer) of the same molecule?
Answer: The solubility was 1950 µg/mL (≈ 9750 µM).

Question: And the solubility (physchem; pH 6.4, aqueous buffer)?
Answer: The solubility was ~600 µg/mL (≈ 3000 µM).

Question: What about the solubility (physchem; pH 7, aqueous buffer) of the same molecule?
Answer: Its solubility is 224 µg/mL (≈ 1120 µM).

Question: And the solubility (physchem; pH 7.4, aqueous buffer)?
Answer: Its solubility is ~150 µg/mL (≈ 749 µM).

Question: And the solubility (physchem; pH 8, aqueous buffer)?
Answer: The solubility was 134 µg/mL (≈ 669 µM).

Question: And the α2/α1 selectivity [6]?
Answer: The α2/α1 selectivity was “over 1,500”.

Question: What does the source list for CNC1(c2ccccc2Cl)CCCCC1=O (stereo not drawn) [ketamine]?
Answer: ionization ([3]; pH of about 8.5): about 10%; ionization ([3]; physiologic pH): over 60%; plasma level at which dissociative changes have been documented ([7]; in vivo): ≤ 1000 ng/mL; plasma level at which sedation occurs ([7]; in vivo): about 9000 μg/L; plasma levels with prior art inhalation forms ([7]; inhalation): over 800 ug/L
